Measurements: ChEMBL document CHEMBL3046564, “Antifungal activity of beta-asarone from rhizomes of Acorus gramineus” (2004)
≈ marks a conversion by molar mass, not a printed value. Calls of active or inactive are those of the source. No cut-off for these calls is given here.

Experiments:
[1] = system: Colletotrichum orbiculare; test: Antifungal activity against Colletotrichum orbiculare infested cucumber plant grown under greenhouse condition assessed as reduction in lesion formation on second leaves at 10 to 500 ug/ml sprayed at two-leaf stage 1 day prior inoculation measured after 6 days post inoculation; type: functional, organism-based
Sclerotinia sclerotiorum = test: Antimicrobial activity against Sclerotinia sclerotiorum assessed as mycelial growth inhibition after 3 to 5 days; type: functional
Xanthomonas campestris = test: Antimicrobial activity against Xanthomonas euvesicatoria assessed as mycelial growth inhibition after 3 to 5 days; type: functional
Bacillus subtilis = test: Antimicrobial activity against Bacillus subtilis assessed as mycelial growth inhibition after 3 to 5 days; type: functional
Globisporangium ultimum = test: Antimicrobial activity against Pythium ultimum assessed as mycelial growth inhibition after 3 to 5 days; type: functional
Botrytis cinerea = test: Antimicrobial activity against Botryotinia fuckeliana assessed as mycelial growth inhibition after 3 to 5 days; type: functional
Candida albicans = test: Antimicrobial activity against Candida albicans assessed as mycelial growth inhibition after 3 to 5 days; type: functional
Saccharomyces cerevisiae = test: Antimicrobial activity against Saccharomyces cerevisiae assessed as mycelial growth inhibition after 3 to 5 days; type: functional
Ilyonectria destructans = test: Antimicrobial activity against Ilyonectria radicicola assessed as mycelial growth inhibition after 3 to 5 days; type: functional
Cladosporium cucumerinum = test: Antimicrobial activity against Cladosporium cucumerinum assessed as mycelial growth inhibition after 3 to 5 days; type: functional
Ralstonia solanacearum = test: Antimicrobial activity against Ralstonia solanacearum assessed as mycelial growth inhibition after 3 to 5 days; type: functional
Pyricularia grisea = test: Antimicrobial activity against Magnaporthe grisea assessed as mycelial growth inhibition after 3 to 5 days; type: functional
Alternaria mali = test: Antimicrobial activity against Alternaria mali assessed as mycelial growth inhibition at 100 ug/ml after 3 to 5 days; type: functional, organism-based
[2] = system: Fusarium oxysporum f. sp. lycopersici; test: Antimicrobial activity against Fusarium oxysporum f. sp. lycopersici assessed as mycelial growth inhibition after 3 to 5 days; type: functional
[3] = system: Colletotrichum orbiculare; test: Antifungal activity against Colletotrichum orbiculare infested cucumber plant grown under greenhouse condition assessed as reduction in lesion formation on second leaves at 500 ug/ml sprayed at two-leaf stage 1 day prior inoculation measured after 6 days post inoculation; type: functional, organism-based
[4] = system: Colletotrichum orbiculare; test: Antimicrobial activity against Colletotrichum orbiculare assessed as mycelial growth inhibition after 3 to 5 days; type: functional
[5] = system: Colletotrichum orbiculare; test: Antifungal activity against Colletotrichum orbiculare infested cucumber plant grown under greenhouse condition assessed as supression of anthracnose development at 500 ug/ml sprayed at two-leaf stage 1 day prior inoculation measured after 6 days post inoculation; type: functional, organism-based
Rhizoctonia solani = test: Antimicrobial activity against Rhizoctonia solani assessed as mycelial growth inhibition after 3 to 5 days; type: functional
[6] = system: Pectobacterium carotovorum subsp. carotovorum; test: Antimicrobial activity against Pectobacterium carotovorum subsp. carotovorum assessed as mycelial growth inhibition after 3 to 5 days; type: functional
Phytophthora capsici = test: Antimicrobial activity against Phytophthora capsici assessed as mycelial growth inhibition after 3 to 5 days; type: functional

SMILES | Activity [1] | MIC (Sclerotinia sclerotiorum) [µg/mL] | MIC (Xanthomonas campestris) [µg/mL] | MIC (Bacillus subtilis) [µg/mL] | MIC (Globisporangium ultimum) [µg/mL] | MIC (Botrytis cinerea) [µg/mL] | MIC (Candida albicans) [µg/mL] | MIC (Saccharomyces cerevisiae) [µg/mL] | MIC (Ilyonectria destructans) [µg/mL] | MIC (Cladosporium cucumerinum) [µg/mL] | MIC (Ralstonia solanacearum) [µg/mL] | MIC (Pyricularia grisea) [µg/mL] | growth inhibition (GI) (Alternaria mali) | MIC [2] [µg/mL] | Activity [3] | MIC [4] [µg/mL] | Activity [5] | MIC (Rhizoctonia solani) [µg/mL] | MIC [6] [µg/mL] | MIC (Phytophthora capsici) [µg/mL]
N#Cc1c(Cl)c(Cl)c(Cl)c(C#N)c1Cl | Active | – | – | – | – | – | – | – | – | – | – | – | – | – | – | – | – | – | – | –
C/C=C\c1cc(OC)c(OC)cc1OC [CIS-ASARONE] | – | > 100 | 50 (≈ 240 µM) | 50 (≈ 240 µM) | 0.5 (≈ 2.4 µM) | > 100 | > 100 | > 100 | > 100 | 30 (≈ 144 µM) | 50 (≈ 240 µM) | 30 (≈ 144 µM) | inactive | > 100 | Active | 30 (≈ 144 µM) | Active | > 100 | 50 (≈ 240 µM) | > 100
